For data set [1], the system named is human neuroblastoma cell lines SH-SY5Y treated with 1-methyl-4-phenylpyridinium (MPP+). Kind of data set: Improvement of mitochondrial function (Alamar Blue mitochondrial oxidation reduction activity) in MPP+-treated SH-SY5Y cells. In kind it is cell-based. The conditions noted are these: 1.5 mM MPP+, relative to cells in DMSO alone = 100%, read-out: Fluorescence Intensity (%); for activity at 0.01 µg/mL: compound 0.01 μg/ml; for activity at 0.03 µg/mL: compound 0.03 μg/ml; for activity at 0.1 µg/mL: compound 0.1 μg/ml; for activity at 0.3 µg/mL: compound 0.3 μg/ml; for activity at 1 µg/mL: compound 1 μg/ml. The method, then: In human neuroblastoma cell lines SH-SY5Y in which mitochondrial function was damaged by MPP^+ treatment (Bollimuntha S. et al., J Biol Chem, 280, 2132-2140 (2005) and Shang T. et al., J Biol Chem, 280, 34644-34653 (2005)), the improvement of mitochondrial function was evaluated on the basis of the measurement value for mitochondrial oxidation reduction activity using Alamar Blue fluorescent dye after the compound addition (Nakai M. et al, Exp Neurol, 179, 103-110 (2003)).
The human neuroblastoma cell lines SH-SY5Y were cultured in Dulbecco's Modified Eagle's Medium containing 10% fetal bovine serum (DMEM containing 50 units/ml penicillin and 50 μg/ml streptomycin as antibiotics) at 37° C. in the presence of 5% carbon dioxide. Cells were scattered on a poly-D-lysine-coated 96-well black plate at a concentration of 3−6×10^4 cells/cm^2 (medium amount: 100 μl/well) and cultured in the medium for two days. Further, the medium was changed to DMEM containing a 1% N2 supplement (N2-DMEM) or to a medium (100 μl/well) in which 1.5 mM MPP^+ was dissolved. The cells were cultured therein for 39 to 48 hours, and then subjected to a mitochondrial oxidation reduction activity measurement system. A sample compound that had been previously dissolved in dimethyl sulfoxide (DMSO) was diluted with N2-DMEM and added in a volume of 10 μl/well 24 hours before the activity measurement (final compound concentration: 0.01 to 1 μg/ml).
After removal of the medium by suction, a balanced salt solution containing 10% Alamar Blue (154 mM sodium chloride, 5.6 mM potassium chloride, 2.3 mM calcium chloride, 1.0 mM magnesium chloride, 3.6 mM sodium hydrogen carbonate, 5 mM glucose, 5 mM HEPES, pH 7.2) was added in a volume of 100 μl/well, and reacted in an incubator at 37° C. for 1 hour. The fluorescent intensity was detected using a fluorescence detector (a product of Hamamatsu Photonics K.K., excitation wavelength: 530 nm, measurement wavelength: 580 nm) to thereby measure the mitochondrial oxidation reduction activity.
The fluorescent intensity of the well of the cells cultured in a medium containing MPP^+ and each of the sample compounds was relatively evaluated based on the 100% fluorescent intensity of the well of the cells cultured in a medium containing DMSO alone (final concentration: 0.1%).

Each structure is given as a SMILES string.

As for `CCCOc1ccc(C(F)(F)F)c2c(=O)c(-c3ccc(OC)cc3)c[nH]c12` [Example 24, 3-(4-Methoxyphenyl)-8-propoxy-5-trifluoromethyl-1H-quinolin-4-one], the melting point was 220 to 221 °C. In data set [1], the activity at 0.01 µg/mL came out at 50%, the activity at 0.03 µg/mL worked out at 57%, the activity at 0.1 µg/mL amounted to 64% and the activity at 0.3 µg/mL worked out at 63%. In data set [1], the activity at 1 µg/mL stood at 36%.

Consider `CCCOc1ccc(OC)c2c(=O)c(-c3ccc(OC)cc3)c[nH]c12` [Example 13, 5-Methoxy-3-(4-methoxyphenyl)-8-propoxy-1H-quinolin-4-one], for which the melting point lay within 223 to 224 °C. Moreover, in data set [1], the activity at 0.01 µg/mL amounted to 56%, the activity at 0.03 µg/mL came to 65%, the activity at 0.1 µg/mL worked out at 74% and the activity at 0.3 µg/mL turned out to be 69%. Moreover, in data set [1], the activity at 1 µg/mL turned out to be 62%.

Turning to `CCCOc1cccc2c(=O)c(-c3ccc(OC)cc3)c[nH]c12` [Example 3, 3-(4-Methoxyphenyl)-8-propoxy-1H-quinolin-4-one], the melting point is 231 to 233 °C. Further, in data set [1], the activity at 0.01 µg/mL turned out to be 68%, the activity at 0.03 µg/mL stood at 77%, the activity at 0.1 µg/mL was 77% and the activity at 0.3 µg/mL came to 83%. In data set [1], the activity at 1 µg/mL was 67%.

`COc1ccc(-c2c[nH]c3c(N4CCCC4)ccc(C)c3c2=O)cc1` [Example 68, 3-(4-Methoxyphenyl)-5-methyl-8-pyrrolidin-1-yl-1H-quinolin-4-one] displayed a melting point of 177 to 178 °C. In data set [1], the activity at 0.01 µg/mL stood at 49%, the activity at 0.03 µg/mL was determined as 56%, the activity at 0.1 µg/mL was determined as 62% and the activity at 0.3 µg/mL is 57%. Moreover, in data set [1], the activity at 1 µg/mL stood at 33%.

`COc1ccc(OCC2CC2)c2[nH]c(C)c(-c3ccco3)c(=O)c12` [Example 109, 8-Cyclopropylmethoxy-3-furan-2-yl-5-methoxy-2-methyl-1H-quinolin-4-one] came in with a melting point of 189 to 190 °C. In data set [1], the activity at 0.01 µg/mL was determined as 49%, the activity at 0.03 µg/mL turned out to be 62%, the activity at 0.1 µg/mL was 65% and the activity at 0.3 µg/mL was determined as 82%. The activity at 1 µg/mL in data set [1] stood at 73%.

On to `CCn1cc(-c2ccc(OC)cc2)c(=O)c2ccc(OC)cc21` [Example 2, 1-Ethyl-7-methoxy-3-(4-methoxyphenyl)-1H-quinolin-4-one], for which the melting point fell in the range of 129 to 131 °C. In addition, in data set [1], the activity at 0.01 µg/mL turned out to be 71%, the activity at 0.03 µg/mL worked out at 73%, the activity at 0.1 µg/mL came out at 74% and the activity at 0.3 µg/mL is 77%. Further, in data set [1], the activity at 1 µg/mL is 81%.

The compound `CCCOc1cccc2c(=O)c(-c3ccccc3C(F)(F)F)c[nH]c12` [Example 32, 8-Propoxy-3-(2-trofluoromethylphenyl)-1H-quinolin-4-one] showed a melting point of 224 °C. In addition, in data set [1], the activity at 0.01 µg/mL turned out to be 49%, the activity at 0.03 µg/mL is 53%, the activity at 0.1 µg/mL is 54% and the activity at 0.3 µg/mL was found to be 57%. In addition, the activity at 1 µg/mL in data set [1] turned out to be 61%.

With `CCCOc1ccc(C(=O)N(C)C)c2c(=O)c(-c3ccc(OC)cc3)c[nH]c12` [Example 87, 3-(4-Methoxyphenyl)-4-oxo-8-propoxy-1,4-dihydroquinolin-5-carboxylic acid dimethylamide], the melting point was 218 to 220 °C. Moreover, in data set [1], the activity at 0.01 µg/mL worked out at 57%, the activity at 0.03 µg/mL was 57%, the activity at 0.1 µg/mL is 60% and the activity at 0.3 µg/mL worked out at 65%. For the same compound, in data set [1], the activity at 1 µg/mL amounted to 66%.

The compound `CCCOc1cc(F)cc2c(=O)c(-c3ccc(OC)cc3)c[nH]c12` [Example 34, 6-Fluoro-3-(4-methoxyphenyl)-8-propoxy-1H-quinolin-4-one] had a melting point of 153 to 154 °C. Moreover, in data set [1], the activity at 0.01 µg/mL is 47%, the activity at 0.03 µg/mL is 53%, the activity at 0.1 µg/mL was 53% and the activity at 0.3 µg/mL was 63%. The activity at 1 µg/mL in data set [1] amounted to 53%.

In turn, `COc1ccc(-c2c[nH]c3c(OCC4CC4)cc(C)c(C)c3c2=O)cc1` [Example 83, 8-Cyclopropylmethoxy-3-(4-methoxyphenyl)-5,6-dimethyl-1H-quinolin-4-one] had a melting point of 99 to 101 °C. Also, in data set [1], the activity at 0.01 µg/mL amounted to 65%, the activity at 0.03 µg/mL came to 70%, the activity at 0.1 µg/mL worked out at 67% and the activity at 0.3 µg/mL amounted to 62%. Moreover, in data set [1], the activity at 1 µg/mL stood at 29%.

As for `CCCOc1ccc(OC)c2c(=O)c(-c3cccc4ccccc34)c[nH]c12` [Example 51, 5-Methoxy-3-naphthalen-1-yl-8-propoxy-1H-quinolin-4-one], the melting point was in the range of 130 to 133 °C. Moreover, in data set [1], the activity at 0.01 µg/mL was 37%, the activity at 0.03 µg/mL turned out to be 45%, the activity at 0.1 µg/mL turned out to be 54% and the activity at 0.3 µg/mL was found to be 65%. Also, the activity at 1 µg/mL in data set [1] was found to be 49%.

With `CCCOc1c(OC)cc(C)c2c(=O)c(-c3ccc(OC)cc3)c[nH]c12` [Example 37, 7-Methoxy-3-(4-methoxyphenyl)-5-methyl-8-propoxy-1H-quinolin-4-one], the melting point lay in the range of 195 to 196 °C. In addition, in data set [1], the activity at 0.01 µg/mL worked out at 47%, the activity at 0.03 µg/mL is 54%, the activity at 0.1 µg/mL was determined as 55% and the activity at 0.3 µg/mL turned out to be 60%. The activity at 1 µg/mL in data set [1] was 59%.

Take `CCCOc1ccc(OC)c2c(=O)c(-c3ccc(OC)cc3OC)c[nH]c12` [Example 21, 3-(2,4-Dimethoxyphenyl)-5-methoxy-8-propoxy-1H-quinolin-4-one]: the melting point was 113 to 114 °C. Also, in data set [1], the activity at 0.01 µg/mL worked out at 65%, the activity at 0.03 µg/mL came out at 68%, the activity at 0.1 µg/mL came to 77% and the activity at 0.3 µg/mL stood at 82%. In data set [1], the activity at 1 µg/mL was 84%.

`CCCOc1ccc(C)c2c(=O)c(-c3ccc(OC)cc3OCC)c[nH]c12` [Example 78, 3-(2-Ethoxy-4-methoxyphenyl)-5-methyl-8-propoxy-1H-quinolin-4-one] gave a melting point of 191 to 192 °C.

`CCCOc1cccc2c(=O)c(-c3cccc(-c4ccc(OC)cc4OC)c3)c[nH]c12` [Example 56, 3-(2′,4′-Dimethoxybiphenyl-3-yl)-8-propoxy-1H-quinolin-4-one] yielded a melting point of 81 to 84 °C.

The compound `O=c1c(-c2ccc(Cl)cc2Cl)c[nH]c2c(OCC3CC3)ccc(O)c12` [Example 107, 8-Cyclopropylmethoxy-3-(2,4-dichlorophenyl)-5-hydroxy-1H-quinolin-4-one] registered a melting point of 163 to 165 °C.

Compound `CCCOc1cccc2c(=O)c(-c3ccc(Cl)cc3Cl)c[nH]c12` [Example 27, 3-(2,4-Dichlorophenyl)-8-propoxy-1H-quinolin-4-one] registered a melting point of 189 °C.

Compound `CCCCc1ccc(C)c2c(=O)c(-c3ccc(OC)cc3)c[nH]c12` [Example 76, 8-Butyl-3-(4-methoxyphenyl)-5-methyl-1H-quinolin-4-one] came in with a melting point of 186 to 188 °C.
